The test system of assay [1] is MOLM-14 D835Y cells, FLT3 ITD and FLT3 D835Y. Briefly: Cell proliferation assay (CellTiter-Glo), MOLM-14 D835Y. The assay is classed as cell-based. To be noted: Homo sapiens, 72 h, 3d-Growth, GMean. In outline:
(§1)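 MOLM-14 AML cells (endogenous FLT3 ITD, AC220-selected D835Y or F691L variants) or murine Ba/F3 expressing full-length FLT3 ITD/D835Y, without IL-3 for FLT3 dependence, 1×10^4 cells/well. Eight-point 1:3 series from 1 μM final, 0.2% DMSO, 3 days at 37 °C. CellTiter-Glo luminescence (ATP) gave IC50.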

Assay [2] concerns the target T1, BA/F3-FLT3-ITD + D835Y cells (Homo sapiens, UniProt P36888, D835Y, cells depend on it, form not given).
T1 sequence (P36888 1-993 D835Y): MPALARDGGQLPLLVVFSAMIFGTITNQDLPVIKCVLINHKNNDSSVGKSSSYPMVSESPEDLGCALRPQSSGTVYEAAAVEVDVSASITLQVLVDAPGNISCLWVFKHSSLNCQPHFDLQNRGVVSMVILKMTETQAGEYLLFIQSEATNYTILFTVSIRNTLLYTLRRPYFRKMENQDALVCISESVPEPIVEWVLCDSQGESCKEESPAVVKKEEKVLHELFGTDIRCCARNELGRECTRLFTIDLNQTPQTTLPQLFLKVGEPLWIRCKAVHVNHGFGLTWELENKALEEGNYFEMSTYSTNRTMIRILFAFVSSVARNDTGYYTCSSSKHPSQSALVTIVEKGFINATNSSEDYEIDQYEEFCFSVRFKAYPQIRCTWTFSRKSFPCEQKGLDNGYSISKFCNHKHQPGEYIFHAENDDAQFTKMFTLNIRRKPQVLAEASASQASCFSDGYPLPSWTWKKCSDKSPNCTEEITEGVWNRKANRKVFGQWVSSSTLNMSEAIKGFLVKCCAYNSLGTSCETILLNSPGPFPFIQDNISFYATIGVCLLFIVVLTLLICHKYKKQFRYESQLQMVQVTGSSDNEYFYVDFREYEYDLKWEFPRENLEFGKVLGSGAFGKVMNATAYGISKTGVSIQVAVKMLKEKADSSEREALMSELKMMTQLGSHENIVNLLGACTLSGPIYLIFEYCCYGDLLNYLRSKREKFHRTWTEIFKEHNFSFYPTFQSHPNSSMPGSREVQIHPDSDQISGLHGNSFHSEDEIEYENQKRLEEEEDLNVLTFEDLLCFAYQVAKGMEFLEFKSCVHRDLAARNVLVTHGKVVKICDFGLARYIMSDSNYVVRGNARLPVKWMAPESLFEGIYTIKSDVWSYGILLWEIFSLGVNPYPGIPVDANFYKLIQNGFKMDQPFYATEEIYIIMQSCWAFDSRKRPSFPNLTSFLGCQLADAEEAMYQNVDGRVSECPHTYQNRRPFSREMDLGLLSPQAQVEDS
Put plainly: Cell proliferation assay (CellTiter-Glo), engineered BA/F3 cells. The assay is classed as cell-based, murine. To be noted: BaF3 FLT3 ITD/D835Y cells, 3d-Growth; read-out: BaF3_FLT3 ITD/D835Y 3d-Growth: IC50. The method, boiled down: as §1
For orientation: In ATP-based viability assays light output follows the ATP content of the culture.

As usually defined, the IC50 is the concentration at which inhibition is half-maximal. Lower therefore signals greater potency. In assay [1], `NC1CCN(C(=O)c2n[nH]c3ccc(-c4cnc5[nH]c(-c6ccccc6)cc5c4)cc23)CC1` [Compound P-0012, (4-amino-1-piperidyl)-[5-(2-phenyl-1H-pyrrolo[2,3-b]pyridin-5-yl)-1H-indazol-3-yl]methanone] gave an IC50 of 0.0001 to 10 µM. Further, the GI50 in assay [2] was 0.0001 to 10 µM.

Compound `NC1CCN(C(=O)c2cccc(-c3cnc4[nH]c(-c5ccccc5)cc4c3)n2)CC1` [Compound P-0013, (4-amino-1-piperidyl)-[6-(2-phenyl-1H-pyrrolo[2,3-b]pyridin-5-yl)-2-pyridyl]methanone] gave an IC50 in assay [1] of 0.0001 to 10 µM. The GI50 in assay [2] lay within 0.0001 to 10 µM. Regarding `NC1CCC(NC(=O)c2cccc(-c3cnc4[nH]c(-c5ccccc5)cc4c3)n2)CC1` (stereo not shown) [Compound P-0018, N-(4-aminocyclohexyl)-6-(2-phenyl-1H-pyrrolo[2,3-b]pyridin-5-yl)pyridine-2-carboxamide], the IC50 in assay [1] fell in the range of 0.0001 to 10 µM. In addition, the GI50 in assay [2] fell in the range of 0.0001 to 10 µM. Compound `CNC1CCN(C(=O)c2cccc(-c3cnc4[nH]c(-c5ccccc5)cc4c3)n2)C1` (stereo not shown) [Compound P-0040, [3-(methylamino)pyrrolidin-1-yl]-[6-(2-phenyl-1H-pyrrolo[2,3-b]pyridin-5-yl)-2-pyridyl]methanone] gave a concentration for half-maximal inhibition (IC50) in assay [1] of 0.0001 to 10 µM. For the same compound, the GI50 in assay [2] was 0.0001 to 10 µM.

In assay [1], `CNC1CCN(C(=O)c2cccc(-c3cnc4[nH]c(-c5cn(C)nc5C)cc4c3)n2)C1` (stereo not shown) [Compound P-0049, [6-[2-(1,3-dimethylpyrazol-4-yl)-1H-pyrrolo[2,3-b]pyridin-5-yl]-2-pyridyl]-[3-(methylamino)pyrrolidin-1-yl]methanone] displayed an IC50 of 0.0001 to 10 µM. Further, the GI50 in assay [2] was in the range of 0.0001 to 10 µM. On to `CNC1CN(C(=O)c2cccc(-c3cnc4[nH]c(-c5ccccc5)cc4c3)n2)C1` [Compound P-0052, [3-(methylamino)azetidin-1-yl]-[6-(2-phenyl-1H-pyrrolo[2,3-b]pyridin-5-yl)-2-pyridyl]methanone], for which the IC50 in assay [1] fell in the range of 0.0001 to 10 µM. Further, the GI50 in assay [2] lay in the range of 0.0001 to 10 µM. `CNC1CCN(C(=O)c2cccc(-c3cnc4[nH]c(-c5ccc(F)cc5)cc4c3)n2)C1` (stereo not shown) [Compound P-0055, [6-[2-(4-fluorophenyl)-1H-pyrrolo[2,3-b]pyridin-5-yl]-2-pyridyl]-[3-(methylamino)pyrrolidin-1-yl]methanone] gave an IC50 in assay [1] of 0.0001 to 10 µM. In addition, the GI50 in assay [2] is 0.0001 to 10 µM.

On to `CN[C@@H]1CCN(C(=O)c2cccc(-c3cnc4[nH]c(-c5ccccc5)cc4c3)n2)C1` [Compound P-0058, [(3R)-3-(methylamino)pyrrolidin-1-yl]-[6-(2-phenyl-1H-pyrrolo[2,3-b]pyridin-5-yl)-2-pyridyl]methanone], for which the IC50 in assay [1] lay in the range of 0.0001 to 10 µM. Besides, the GI50 in assay [2] was 0.0001 to 10 µM.

Compound `CNC1CCN(C(=O)c2cccc(-c3cnc4[nH]c(-c5ccnc(OC)c5)cc4c3)n2)C1` (stereo not shown) [Compound P-0060, [6-[2-(2-methoxy-4-pyridyl)-1H-pyrrolo[2,3-b]pyridin-5-yl]-2-pyridyl]-[3-(methylamino)pyrrolidin-1-yl]methanone] yielded a concentration for half-maximal inhibition (IC50) in assay [1] of 0.0001 to 10 µM. Also, the GI50 in assay [2] fell in the range of 0.0001 to 10 µM.

In turn, `CNC1CCN(C(=O)c2cccc(-c3cnc4[nH]c(-c5cnn(CC(F)(F)F)c5)cc4c3)n2)C1` (stereo not shown) [Compound P-0061, [3-(methylamino)pyrrolidin-1-yl]-[6-[2-[1-(2,2,2-trifluoroethyl)pyrazol-4-yl]-1H-pyrrolo[2,3-b]pyridin-5-yl]-2-pyridyl]methanone] showed a 50% inhibitory concentration (IC50) in assay [1] of 0.0001 to 10 µM. Moreover, the GI50 in assay [2] is 0.0001 to 10 µM. In turn, `CNC1CCN(C(=O)c2cccc(-c3cnc4[nH]c(-c5cccc(C#N)c5)cc4c3)n2)C1` (stereo not shown) [Compound P-0062, 3-[5-[6-[3-(methylamino)pyrrolidine-1-carbonyl]-2-pyridyl]-1H-pyrrolo[2,3-b]pyridin-2-yl]benzonitrile] had a 50% inhibitory concentration (IC50) in assay [1] of 0.0001 to 10 µM. For the same compound, in assay [2], the GI50 lay within 0.0001 to 10 µM. Compound `CNC1CCN(S(=O)(=O)c2cccc(-c3cnc4[nH]c(-c5ccccc5)cc4c3)n2)C1` (stereo not shown) [Compound P-0063, N-methyl-1-[[6-(2-phenyl-1H-pyrrolo[2,3-b]pyridin-5-yl)-2-pyridyl]sulfonyl]pyrrolidin-3-amine] returned a 50% inhibitory concentration (IC50) in assay [1] of 0.0001 to 10 µM. Besides, the GI50 in assay [2] is 0.0001 to 10 µM. With `CN1CCC(NC(=O)c2cccc(-c3cnc4[nH]c(-c5ccccc5)cc4c3)n2)C1` (stereo not shown) [Compound P-0064, N-(1-methylpyrrolidin-3-yl)-6-(2-phenyl-1H-pyrrolo[2,3-b]pyridin-5-yl)pyridine-2-carboxamide], in assay [1], the IC50 fell in the range of 0.0001 to 10 µM. Further, the GI50 in assay [2] lay within 0.0001 to 10 µM. In the case of `CNC1CCN(C(=O)c2cccc(-c3cnc4[nH]c(C5=CCC(C)(C)CC5)cc4c3)n2)C1` (stereo not shown) [Compound P-0070, [6-[2-(4,4-dimethylcyclohexen-1-yl)-1H-pyrrolo[2,3-b]pyridin-5-yl]-2-pyridyl]-[3-(methylamino)pyrrolidin-1-yl]methanone], the concentration for half-maximal inhibition (IC50) in assay [1] fell in the range of 0.0001 to 10 µM. Also, in assay [2], the GI50 lay in the range of 0.0001 to 10 µM. Turning to `O=S(=O)(NC1CNC1)c1cccc(-c2cnc3[nH]c(-c4ccccc4)cc3c2)n1` [Compound P-0071, N-(azetidin-3-yl)-6-(2-phenyl-1H-pyrrolo[2,3-b]pyridin-5-yl)pyridine-2-sulfonamide], the concentration for half-maximal inhibition (IC50) in assay [1] was 0.0001 to 10 µM. In assay [2], the GI50 lay within 0.0001 to 10 µM. Take `O=S(=O)(NC1CCNC1)c1cccc(-c2cnc3[nH]c(-c4ccccc4)cc3c2)n1` (stereo not shown) [Compound P-0072, 6-(2-phenyl-1H-pyrrolo[2,3-b]pyridin-5-yl)-N-pyrrolidin-3-yl-pyridine-2-sulfonamide]: the IC50 in assay [1] was 0.0001 to 10 µM. Also, the GI50 in assay [2] is 0.0001 to 10 µM. In assay [1], `NC1CCN(S(=O)(=O)c2cccc(-c3cnc4[nH]c(-c5ccccc5)cc4c3)n2)CC1` [Compound P-0073, 1-[[6-(2-phenyl-1H-pyrrolo[2,3-b]pyridin-5-yl)-2-pyridyl]sulfonyl]piperidin-4-amine] returned an IC50 of 0.0001 to 10 µM. Besides, the GI50 in assay [2] lay in the range of 0.0001 to 10 µM. In assay [1], `CN1CC(NC(=O)c2cccc(-c3cnc4[nH]c(-c5ccccc5)cc4c3)n2)C1` [Compound P-0075, N-(1-methylazetidin-3-yl)-6-(2-phenyl-1H-pyrrolo[2,3-b]pyridin-5-yl)pyridine-2-carboxamide] yielded a half-inhibitory concentration (IC50) of 0.0001 to 10 µM. In assay [2], the GI50 lay within 0.0001 to 10 µM.

The compound `NC1(C(F)(F)F)CCN(C(=O)c2cccc(-c3cnc4[nH]c(-c5ccccc5)cc4c3)n2)C1` (stereo not shown) [Compound P-0077, [3-amino-3-(trifluoromethyl)pyrrolidin-1-yl]-[6-(2-phenyl-1H-pyrrolo[2,3-b]pyridin-5-yl)-2-pyridyl]methanone] displayed a 50% inhibitory concentration (IC50) in assay [1] of 0.0001 to 10 µM. The GI50 in assay [2] lay within 0.0001 to 10 µM.

For `CC1(N)CCN(C(=O)c2cccc(-c3cnc4[nH]c(-c5ccccc5)cc4c3)n2)C1` (stereo not shown) [Compound P-0078, (3-amino-3-methyl-pyrrolidin-1-yl)-[6-(2-phenyl-1H-pyrrolo[2,3-b]pyridin-5-yl)-2-pyridyl]methanone], the half-inhibitory concentration (IC50) in assay [1] fell in the range of 0.0001 to 10 µM. Also, in assay [2], the GI50 lay in the range of 0.0001 to 10 µM. With `CNCC1CCN(C(=O)c2cccc(-c3cnc4[nH]c(-c5ccccc5)cc4c3)n2)C1` (stereo not shown) [Compound P-0079, [3-(methylaminomethyl)pyrrolidin-1-yl]-[6-(2-phenyl-1H-pyrrolo[2,3-b]pyridin-5-yl)-2-pyridyl]methanone], in assay [1], the half-maximal inhibitory concentration (IC50) was 0.0001 to 10 µM. The GI50 in assay [2] lay in the range of 0.0001 to 10 µM.

`N#CC1CCN(C(=O)c2cccc(-c3cnc4[nH]c(-c5ccc(F)cc5)cc4c3)n2)C1` (stereo not shown) [Compound P-0116, 1-[6-[2-(4-fluorophenyl)-1H-pyrrolo[2,3-b]pyridin-5-yl]pyridine-2-carbonyl]pyrrolidine-3-carbonitrile]: the GI50 in assay [2] lay in the range of 0.0001 to 10 µM.
